From patent publication US20090010873A1, “Methods of Cell Therapy, Neurogenesis and Oligodendrogenesis” (YEDA RESEARCH AND DEVELOPMENT CO. LTD., priority 2004, published 2009)

Tested on: aNPCs
Experiment: Neuronal differentiation of aNPCs with CD4+ T cells, T cell-conditioned medium or cytokines
Type: cell-based, mouse
Conditions: aNPCs cultured 5 days with the cytokine
Protocol: (xxxiii) Co-culturing of neural progenitor cells and T cells. CD4+ T cells were purified from lymph nodes of 8-week-old C57B16/J mice as previously described (Kipnis et al., 2004). T cells were activated in RPMI medium supplemented with L-glutamine (2 mM), 2-mercaptoethanol (5×10^−5 M), sodium pyruvate (1 mM), penicillin (100 IU/ml), streptomycin (100 μg/ml), nonessential amino acids (1 ml/100 ml), and autologous serum 2% (v/v) in the presence of mouse recombinant IL-2 (mrIL-2; 5 ng/ml) and soluble anti-CD28 and anti-CD3 antibodies (1 ng/ml). T cells were co-cultured (5×10^4 cells/well) with aNPCs (5×10^4 cells/well) for 5 d on cover slips coated with Matrigel (BD Biosciences) in 24-well plates. The cultures were then fixed with 2.5% paraformaldehyde in PBS for 30 min at room temperature and stained for neuronal markers.
We therefore sought to determine whether direct interaction between aNPCs and T cells would also result in an altered pattern of aNPC differentiation. To address this question, we activated CD4+ T cells in vitro by a cognate protocol (with anti-CD3 antibodies, anti-CD28 antibodies, and IL-2) for 24 h and then allowed their activation to continue in co-cultures with aNPCs in a transwell culture system. […] After 5 days in culture the aNPCs in the lower chamber were fixed and analyzed for the appearance of newly formed neurons. […]

Q: Which “concentration (as low as) inducing an increase in β-III tubulin expression” value does the source give for IFN-γ here?
A: 1 ng/mL
